Assay results as given in patent US12285395B2, “Pharmaceutical composition for preventing or treating allodynia caused by anticancer agents” (UNIVERSITY-INDUSTRY COOPERATION GROUP OF KYUNG HEE …, priority 2018, dated 2025).

Legend:
[1] = test system: oxaliplatin-induced cold allodynia; experiment: Acetone drop test, oxaliplatin-induced cold allodynia, intraperitoneal administration; type: in vivo, Sprague Dawley (SD) rats; details: for effect on oxaliplatin-induced cold allodynia: all three doses 10, 20 and 40 mg/kg i.p., 30, 60, 120 min after injection (FIG. 5A, FIG. 6)
Protocol: (§1) Cinnamic acid (trans-cinnamic acid, Wako Pure Chemical Industries, Osaka, Japan) and cinnamaldehyde (Wako Pure Chemical Industries, Osaka, Japan) were dissolved in 10% dimethyl sulfoxide (DMSO, Sigma) (adjusted to pH 7 with 2 M HCl and 5 M NaOH) and 1% Tween 20 (Sigma), respectively. The final volume of 10% DMSO and 1% Tween 20 used in the experiment was […] rat. Cinnamic acid and cinnamaldehyde (10 mg/kg, 20 mg/kg, and 40 mg/kg) (i.p.) at different concentrations were administered to rats with cold allodynia and mechanical allodynia.
(§2) Seven-week-old male Sprague Dawley (SD) rats (180 g to 210 g, 95 rats total, Young Bio, Gyeonggi, Korea) were fed freely with feed and water in cages. The room temperature was maintained at 23±2° C. and a 12 h/12 h contrast cycle was maintained. All procedures described in the present disclosure were approved by the Animal Care and Use Committee of Kyunghee University (KHUASP[SE]-18-153) and followed the guidelines of the International Pain Research Association.
(§3) In order to measure cold allodynia and mechanical allodynia, according to a previous method (Flatters, S J; Bennett, G J Ethosuximide reverses paclitaxel- and vincristine-induced painful peripheral neuropathy. Pain 2004, 109, 150-161), an acetone drop test and a von Frey filament test (up-down method, Linton Instrumentation, Norfolk, UK) were performed, respectively. The rats were trained for one week before the start of the experiment to adapt to the touch and the experimental procedure. The rats were stabilized for 30 min before testing in a clear plastic box (20 cm×20 cm×14 cm) with a wire mesh bottom, while not recognizing the injection of oxaliplatin and other drugs.
Acetone was dripped 5 times on the right hind paw, and the total frequency of licking and shaking of the soles was measured as an average per time.
(§4) For the mechanical allodynia test, paw withdrawal thresholds were measured in the right hind paw using a von Frey filament. Dixon's up-down method and Chaplan's calculation method were used, and a withdrawal threshold of 15 g was measured as a cut-off. In order to confirm the effects of cinnamaldehyde and cinnamic acid at different concentrations over time, the behavioral experiment was performed before injection of cinnamic acid and cinnamaldehyde (time point of 0 min) and at time points of 30 min, 60 min, and 120 min after injection.
(§5) Oxaliplatin (Wako Pure Chemical Industries, Osaka, Japan) was dissolved in a 5% glucose solution at a concentration of 2 mg/mL and injected intraperitoneally at a dose of 6 mg/kg. The same volume of 5% glucose solution (i.p.) was administered to a control.
(§6) All data are expressed as mean±S.E.M. (Standard error of the mean). The data in FIG. 4 was analyzed by a paired t-test (FIGS. 4A and 4B) or an unpaired t-test (FIG. 4C). The data in FIGS. 5 and 6 were expressed as mean±S.E.M. and analyzed by a Bonferroni post-test after one-way ANOVA to evaluate a statistical difference between groups. The data in FIG. 7A were analyzed using Dunnett's multiple comparisons test after two-way ANOVA. The 95% reliability was considered to be statistically significant.

[2] = test system: oxaliplatin-induced mechanical allodynia; experiment: von Frey filament test (up-down method), oxaliplatin-induced mechanical allodynia, intraperitoneal administration; type: in vivo, Sprague Dawley (SD) rats
Protocol: as §1, §2, §3, §4, §5, §6

[3] = test system: cold allodynia induced by oxaliplatin; experiment: Cold allodynia (acetone application), oxaliplatin animal model, oral cinnamic acid; type: in vivo, c57/bl6 mice
Protocol: (§7) Six-week-old mice (c57/bl6 mice) were prepared as an experimental animal.
(§8) Oxaliplatin (Sigma-Aldrich) dissolved in a 5% glucose solution at a concentration of 2 mg/mL was singly administered intraperitoneally to the experimental animal in an amount of 6 mg/kg. Significant pain was observed from about 3 days after intraperitoneal administration.
The reaction that occurred by applying about 20 μL of acetone to the soles of both rear paws of the experimental animal was observed and recorded for about 15 s.
Behaviors that are criteria for recording are an avoidance reaction, a behavior of shaking the soles of the paw, and a behavior of licking the soles of the paw. The evaluation was repeated a total of three times, and the average of the number of recorded behaviors was confirmed.
(§9) Experimental animals induced with allodynia were selected through a pre-behavioral experiment, and the effects were confirmed at 2 h after oral administration of 10 mg/kg of cinnamic acid.

[4] = test system: mechanical allodynia induced by oxaliplatin; experiment: Mechanical allodynia (von Frey filament 0.4 g), oxaliplatin animal model, oral cinnamic acid; type: in vivo, c57/bl6 mice; details: mice, 10 mg/kg oral (FIG. 1)
Protocol: as §7, §8
The number of reactions was recorded by stimulating the soles of both hind paws of the experimental animal 10 times using a von Frey filament at a pressure of 0.4 g.
The behaviors that are criteria for recording are an avoidance reaction and a behavior of licking the soles of the paw. The recording for both paws was averaged and confirmed.
as §9

[5] = test system: cold allodynia induced by paclitaxel; experiment: Cold allodynia (acetone application), paclitaxel animal model, oral cinnamic acid; type: in vivo, c57/bl6 mice
Protocol: Six-week-old mice (c57/bl6 mice) were prepared as an experimental animal. Paclitaxel (Sigma-Aldrich) dissolved at a concentration of 6 mg/mL in a 1:1 solution of Cremophor EL and ethanol was diluted to a concentration of 2 mg/mL and intraperitoneally injected 4 times at 2 mg/kg. The dosage was administered every other day on days 0, 2, 4, and 6. Significant pain was observed from about 10 days after the first dosage. The reaction that occurred by applying about 20 μL of acetone to the soles of both rear paws of the experimental animal was observed and recorded for about 15 s. Behaviors that are criteria for recording are an avoidance reaction, a behavior of shaking the soles of the paw, and a behavior of licking the soles of the paw. The evaluation was repeated a total of three times, and the average of the number of recorded behaviors was confirmed. As a pre-behavioral experiment, 50 mg/kg and 100 mg/kg of cinnamic acid was orally administered to experimental animals induced with allodynia, and the effects after 1 h and 2 h were confirmed.

[6] = test system: mechanical allodynia induced by paclitaxel; experiment: Mechanical allodynia (von Frey filament 0.4 g), paclitaxel animal model, oral cinnamic acid; type: in vivo, c57/bl6 mice; details: mice
Protocol: Six-week-old mice (c57/bl6 mice) were prepared as an experimental animal. Paclitaxel (Sigma-Aldrich) dissolved at a concentration of 6 mg/mL in a 1:1 solution of Cremophor EL and ethanol was diluted to a concentration of 2 mg/mL and intraperitoneally injected 4 times at 2 mg/kg. The dosage was administered every other day on days 0, 2, 4, and 6. Significant pain was observed from about 10 days after the first dosage. The number of reactions was recorded by stimulating the soles of both hind paws of the experimental animal 10 times using a von Frey filament at a pressure of 0.4 g. The behaviors that are criteria for recording are an avoidance reaction and a behavior of licking the soles of the paw. The recording for both paws was averaged and confirmed. As a pre-behavioral experiment, 50 mg/kg and 100 mg/kg of cinnamic acid was orally administered to experimental animals induced with allodynia, and the effects after 1 h and 2 h were confirmed.

[7] = test system: cold allodynia induced by vincristine; experiment: Cold allodynia (acetone application), vincristine animal model, oral cinnamic acid; type: in vivo, c57/bl6 mice
Protocol: Six-week-old mice (c57/bl6 mice) were prepared as an experimental animal. Vincristine at a concentration of 1 mg/mL was injected intraperitoneally for 7 consecutive days at 0.1 mg/kg. Significant pain was observed from about 10 days after the first injection. The reaction that occurred by applying about 20 μL of acetone to the soles of both rear paws of the experimental animal was observed and recorded for about 15 s. Behaviors that are criteria for recording are an avoidance reaction, a behavior of shaking the soles of the paw, and a behavior of licking the soles of the paw. The evaluation was repeated a total of three times, and the average of the number of recorded behaviors was confirmed. Experimental animals induced with allodynia were selected through a pre-behavioral experiment and orally administered with 50 mg/kg and 100 mg/kg of cinnamic acid, and the effects after 1 h and 2 h were confirmed.

[8] = test system: mechanical allodynia induced by vincristine; experiment: Mechanical allodynia (von Frey filament 0.4 g), vincristine animal model, oral cinnamic acid; type: in vivo, c57/bl6 mice; details: mice
Protocol: Six-week-old mice (c57/bl6 mice) were prepared as an experimental animal. Vincristine at a concentration of 1 mg/mL was injected intraperitoneally for 7 consecutive days at 0.1 mg/kg. Significant pain was observed from about 10 days after the first injection. The number of reactions was recorded by stimulating the soles of both hind paws of the experimental animal 10 times using a von Frey filament at a pressure of 0.4 g. The behaviors that are criteria for recording are an avoidance reaction and a behavior of licking the soles of the paw. The recording for both paws was averaged and confirmed. Experimental animals induced with allodynia were selected through a pre-behavioral experiment and orally administered with 50 mg/kg and 100 mg/kg of cinnamic acid, and the effects after 1 h and 2 h were confirmed.

[9] = test system: spinal WDR neurons; experiment: In vivo extracellular recording of spinal WDR neurons after oxaliplatin; design: species or system Sprague Dawley (SD) rats
Protocol: as §2
Oxaliplatin (Wako Pure Chemical Industries, Osaka, Japan) was dissolved in a 5% glucose solution at a concentration of 2 mg/mL and injected intraperitoneally at a dose of 6 mg/kg. The same volume of 5% glucose solution (i.p.) was administered to a control. […]
as §6, with “The 95% reliability was considered to be statistically significant.” left out

[10] = 10, 20 and 40 mg/kg i.p., 30, 60, 120 min after injection (FIG. 5B, FIG. 6)

For `O=CC=Cc1ccccc1` [cinnamaldehyde, reference compound], the “effect on oxaliplatin-induced cold allodynia” value [1] was “did not have relief effects” and the “effect on oxaliplatin-induced mechanical allodynia” value [2, 10] was “did not have relief effects”.
`O=C(O)/C=C/c1ccccc1` [cinnamic acid] was tested, and the “time after administration up to which pain relief effect on cold allodynia was shown” value (from here on “time after administration up”) ([3]; low dose 10 mg/kg p.o.) was “up to 2 h”, the “pain relief effect on cold allodynia compared to control (vehicle)” value ([3]; mice, 10 mg/kg oral, 2 h after administration (FIG. 1)) was “significant pain relief effect” and the “pain relief effect on mechanical allodynia compared to control (vehicle)” value [4] was “no significant pain relief effect”. The “time after administration up” value ([5]; high dose 100 mg/kg p.o.) was “up to 1 h”, the “pain relief effect on cold allodynia” value ([5]; mice, 50 mg/kg oral (FIG. 2)) was “no significant pain relief effect” and the “pain relief effect on cold allodynia compared to control” value ([5]; mice, 100 mg/kg oral, after 1 h (FIG. 2)) was “significant pain relief effect”. For the same molecule, the “pain relief effect on mechanical allodynia” value ([6]; 50 mg/kg oral (FIG. 2)) was “no significant pain relief effect”, the “pain relief effect on mechanical allodynia compared to control” value ([6]; 100 mg/kg oral (FIG. 2)) was “no significant pain relief effect” and the “time after administration up” value ([7]; high dose 100 mg/kg p.o.) was “up to 1 h”. For the same molecule, the “pain relief effect on cold allodynia” value ([7]; mice, 50 mg/kg oral (FIG. 3)) was “no significant pain relief effect”, the “pain relief effect on cold allodynia compared to control” value ([7]; mice, 100 mg/kg oral, after 1 h (FIG. 3)) was “significant pain relief effect” and the “pain relief effect on mechanical allodynia” value ([8]; 50 mg/kg oral (FIG. 3)) was “no significant pain relief effect”. For the same molecule, the “pain relief effect on mechanical allodynia compared to control” value ([8]; 100 mg/kg oral (FIG. 3)) was “no significant pain relief effect”, the “time point at which the effect on cold allodynia disappeared” value ([1]; 10 mg/kg i.p. (FIG. 5A)) was 120 min and the “pain relief effect on cold allodynia of 20 mg/kg relative to 40 mg/kg” value ([1]; 20 mg/kg i.p. vs 40 mg/kg i.p. (control vs. 20 mg/kg p<0.001, 40 mg/kg p<0.05) (FIG. 5A)) was “slightly stronger”. The “effect on oxaliplatin-induced cold allodynia” value [1] was “had effects on cold allodynia”, the “optimal dose for alleviating cold allodynia and mechanical allodynia caused by oxaliplatin” value ([1]; intraperitoneal administration, doses tested 10, 20, 40 mg/kg) was 20 mg/kg and the “effect on oxaliplatin-induced mechanical allodynia” value ([2]; 10 mg/kg i.p., 60 min after injection (FIG. 5B)) was “remarkable effect”. The “anti-allodynic effect on mechanical allodynia” value ([2]; 20 mg/kg i.p., all time points, compared with 10 and 40 mg/kg (FIG. 5B)) was “strongest anti-allodynic effect among the three doses”, the “effect on oxaliplatin-induced mechanical allodynia” value [2, 10] was “significantly alleviated” and the “increased activity of WDR neurons after oxaliplatin injection (brush, press, pinch, acetone drop stimulations)” value ([9]; 20 mg/kg i.p., day 4 after oxaliplatin, vs 10% DMSO control (FIGS. 7A to 7D)) was “significantly decreased”.
For `O=C1[O][Pt]2([NH][C@@H]3CCCC[C@H]3[NH]2)[O]C1=O` [oxaliplatin, reference compound], the “induction of cold allodynia (acetone drop)” value ([1]; oxaliplatin 6 mg/kg i.p. single injection, day 4, p<0.001 vs before (FIG. 4A)) was “significantly induced”, the “induction of mechanical allodynia (von Frey)” value ([2]; oxaliplatin 6 mg/kg i.p. single injection, day 4, p<0.001 vs before (FIG. 4B)) was “significantly induced” and the “number of spike responses of WDR neurons to mechanical (brush, press, pinch) and cold (acetone drop) stimulations” value ([9]; after oxaliplatin 6 mg/kg i.p. vs 5% glucose control (FIGS. 4C to 4F)) was “significantly increased”.
